Laboratory results taken from patent US8198405B2, “Stabilized alpha helical peptides and uses thereof” (Dana-Farber Cancer Institute, Inc., priority 2003, dated 2012).
Where a SMILES comes first, the peptide text is derived from it. [ ]: non-standard residue; d: D form. The star is where a group is joined. FITC = O=C1OC2(c3ccc(O)cc3Oc3cc(O)ccc32)c2ccc(NC(=S)*)cc21; Nle = CCCC[C@H](N)C(=O)O; βAla = NCCC(=O)O

Experiments:
[1] = 10 mg/kg FITC-conjugated peptide
Experimental: Levels of intact FITC-compound in 25 μL of fresh serum were then measured.

[2] = test system: Jurkat T-cell leukemia cells; experiment: Confocal microscopy, intracellular localization; assay type: cell-based; settings: fixed cells
Experimental: Confocal microscopy experiments were employed in order to determine the intracellular localization of SAHB3BIDA. Jurkat T-cell leukemia cells were incubated with FITC-labeled compounds as described above or with serum replacement at 4 hours followed by additional 16 hours incubation at 37° C., and after washing twice with PBS, were cytospun at 600 RPM for 5 minutes onto superfrost plus glass slides (Fisher). Cells were then fixed in 4% paraformaldehyde, washed with PBS, incubated with TO-PRO-3 iodide (100 nM) (Molecular Probes) to counterstain nuclei, treated with Vectashield mounting medium (Vector), and then imaged by confocal microscopy (BioRad 1024). For double labeling experiments, fixed cells were additionally incubated with primary antibody to TOM20, and rhodamine-conjugated secondary antibody prior to TOPRO-3 counterstaining. […] Treated Jurkats were washed twice and then resuspended in PBS and wet mount preparations analyzed with a BioRad 1024 (Beth Israel/Deaconess Center for Advanced Microscopy) or Zeiss LSM510 laser scanning confocal microscope (Children's Hospital Boston Imaging Core).

[3] = test system: Jurkat T-cell leukemia cells; experiment: Cellular uptake of FITC-peptides by FACS
Source text: BID helix 6, a cell permeable and membrane perturbing peptide, was used as a positive control for FITC-labeling in this experiment.

trypsin = target: T1, trypsin (Bos taurus, UniProt P00760); experiment: In vitro trypsin proteolysis (trypsin agarose); assay type: in vitro ADME; settings: first order rate constant, triplicate
T1 sequence (P00760 24-246): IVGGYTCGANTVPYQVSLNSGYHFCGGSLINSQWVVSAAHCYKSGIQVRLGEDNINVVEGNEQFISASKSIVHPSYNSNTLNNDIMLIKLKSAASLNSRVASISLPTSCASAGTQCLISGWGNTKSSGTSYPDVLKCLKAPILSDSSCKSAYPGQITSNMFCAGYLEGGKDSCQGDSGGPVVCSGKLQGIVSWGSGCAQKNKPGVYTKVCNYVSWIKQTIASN
Experimental: The amide bond of the peptide backbone is susceptible to hydrolysis by proteases, thereby rendering peptidic compounds vulnerable to rapid degradation in vivo. Peptide helix formation, however, buries the amide backbone and therefore shields it from proteolytic cleavage. […] SAHB3BIDA and unmodified peptide were incubated with trypsin agarose and the reactions quenched at various time points by centrifugation and subsequent HPLC injection to quantitate the residual substrate by ultraviolet absorption at 280 nm. […] Reactions were quenched by tabletop centrifugation at high speed; remaining substrate in the isolated supernatant was quantified by HPLC-based peak detection at 220 nm.

BAX = target: T2, BAX (Homo sapiens, UniProt Q07812); experiment: Fluorescence polarization direct binding assay; settings: full-length BAX
T2 construct: Full-length BAX protein was prepared as previously described (Suzuki et al, Cell, 103:645); made in house
T2 sequence (Q07812 whole entry): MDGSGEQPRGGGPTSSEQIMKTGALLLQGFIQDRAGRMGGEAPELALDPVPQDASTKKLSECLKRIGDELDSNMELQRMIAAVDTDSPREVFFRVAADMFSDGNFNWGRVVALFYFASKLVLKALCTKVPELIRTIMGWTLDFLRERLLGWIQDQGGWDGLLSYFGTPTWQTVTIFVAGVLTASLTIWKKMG

[4] = test system: REH, MV4; 11, and SEMK2 cell lines; experiment: Apoptosis induction assays; assay type: cell-based
GST-BCL-2 = target: T3, GST-BCL-2 (Homo sapiens, UniProt P10415); experiment: Fluorescence polarization competitive binding (displacement of FITC-BID BH3)
T3 construct: containing the plasmid encoding C-terminal deleted GST-BCL-2; made in house; host or cells: Escherichia coli BL21 (DE3)
T3 sequence (P10415 1-218 limits assumed): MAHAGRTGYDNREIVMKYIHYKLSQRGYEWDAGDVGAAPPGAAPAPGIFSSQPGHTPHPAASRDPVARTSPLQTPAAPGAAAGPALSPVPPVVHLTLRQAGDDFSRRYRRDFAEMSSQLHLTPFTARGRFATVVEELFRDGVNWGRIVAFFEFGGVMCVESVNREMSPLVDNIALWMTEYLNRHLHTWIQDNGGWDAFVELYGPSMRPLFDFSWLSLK

SEMK2-M1 leukemia cells = experiment: SEMK2 leukemia in vivo, total body luminescence
[5] = test system: Jurkat cells engineered to overexpress BCL-2; experiment: Apoptosis by annexin V flow cytometry; assay type: cell-based
Experimental: Indeed, the pro-apoptotic effect of 10 uM SAHB3BIDA and B on “wild-type” Jurkats was abolished in the BCL-2 overexpressing cells. […] The observed pro-apoptotic effects are selectively abolished by gly to glu mutation of SAHB3BIDA and cellular overexpression of BCL-2, findings which underscore that SAHB3BID compounds function via the defined mitochondrial apoptosis pathway.

[6] = test system: mouse liver mitochondria isolated from Bak-/- mice; experiment: Cytochrome c release assay, Bak-/- mitochondria (BAK-independent release); assay type: biochemical; settings: 1 μM, 40 minutes
Experimental: (§1) In order to assess the biological activity of SAHB3BID compounds in vitro, cytochrome c release assays were performed using purified mouse liver mitochondria. Mitochondria (0.5 mg/mL) were incubated for 40 minutes with 1 μM and 100 nM of SAHB3BID compounds and then supernatants and mitochondrial fractions isolated and subjected to cytochrome c ELISA assay. Background cytochrome c release (10-15%) was subtracted from total release for each sample, and the percent actual cytochrome c release was determined (FIG. 12). […] In each case, except for the double cross-linked SAHB3BIDE (which may lack critical amino acids for biological activity or, in this case, be overly constrained by the dual cross-links), there is approximately a doubling of cytochrome c release in response to 1 μM SAHB3BID compounds compared to the unmodified peptide (FIG. 12a). […] BID mutants with defective BH3 domains can promote BAK-independent cytochrome c mobilization (Scorrano et al, Dev Cell, 2:55), and the highly hydrophobic BID helix 6 has been implicated in this activity (L. Scorrano, S. J. Korsmeyer, unpublished results).
Similar to the above experiment, mouse liver mitochondria from wild-type and Bak−/− mice were exposed to the compounds at various concentrations and assayed for cytochrome c release at 10 and 40 minute intervals. […]

BCL-2 = target: T4, BCL-2 (Homo sapiens, UniProt P10415); experiment: Fluorescence polarization direct binding assay
T4 construct: containing the plasmid encoding C-terminal deleted GST-BCL-2; made in house; host or cells: Escherichia coli BL21 (DE3)
T4 sequence (P10415 1-218 limits assumed): as above

[7] = test system: purified mouse liver mitochondria; experiment: Cytochrome c release assay (ELISA), wild-type mitochondria; assay type: biochemical
Experimental: as §1
Similar to the above experiment, mouse liver mitochondria from wild-type and Bak−/− mice were exposed to the compounds at various concentrations and assayed for cytochrome c release at 10 and 40 minute intervals. […] Thus, SAHB3BIDA and B display a 10-25 fold enhancement in cytochrome c release activity at the 40 minute time point.

BCL-XL = experiment: 15N/1H HSQC NMR of 15N-labeled BCL-XL; assay type: binding; settings: 1:1 complex, 0.1 mM
Experimental: Briefly, Escherichia coli BL21 (DE3) containing the plasmid encoding C-terminal deleted BCL-XL were cultured in M9-minimal medium containing ^15NH4Cl (Cambridge Isotope Laboratories) to generate uniformly ^15N-labeled protein. Recombinant proteins were isolated from bacteria. […] Two dimensional ^15N/^1H heteronuclear single-quantum spectra were recorded for the two complexes and analyzed for changes in resonance upon ligand binding.

## CCCC[C@H](NC(=O)[C@H](CO)NC(=O)[C@H](CC(=O)O)NC(=O)CNC(=O)[C@@H](NC(=O)[C@H](CCC(N)=O)NC(=O)[C@H](C)NC(=O)[C@H](CC(C)C)NC(=O)[C@H](Cc1c[nH]cn1)NC(=O)[C@H](CCCNC(=N)N)NC(=O)[C@H](C)NC(=O)[C@@H](NC(=O)[C@H](CC(N)=O)NC(=O)[C@H](CCCNC(=N)N)NC(=O)[C@@H](NC(=O)[C@@H](NC(=O)[C@H](CC(=O)O)NC(=O)[C@@H](N)CCC(=O)O)[C@@H](C)CC)[C@@H](C)CC)[C@@H](C)CC)C(C)C)C(=O)N[C@@H](CC(=O)O)C(=O)N[C@@H](CCCNC(=N)N)C(=O)N[C@@H](CO)C(=O)N[C@H](C(=O)N[C@@H](Cc1c[nH]c2ccccc12)C(N)=O)[C@@H](C)CC [BID BH3, reference compound] (H-EDIIRNIARHLAQVGDS[Nle]DRSIW-NH2)
[1]; one hour after injection
  percent detectable in serum: 12%

## CCCC[C@H](NC(=O)[C@H](CO)NC(=O)[C@H](CC(=O)O)NC(=O)CNC(=O)[C@@H](NC(=O)[C@H](CCC(N)=O)NC(=O)[C@H](C)NC(=O)[C@H](CC(C)C)NC(=O)[C@H](Cc1c[nH]cn1)NC(=O)[C@H](CCCNC(=N)N)NC(=O)[C@H](C)NC(=O)[C@@H](NC(=O)[C@H](CC(N)=O)NC(=O)[C@H](CCCNC(=N)N)NC(=O)[C@@H](NC(=O)[C@@H](NC(=O)[C@H](CC(=O)O)NC(=O)[C@H](CCC(=O)O)NC(=O)CCNC(=S)Nc1ccc2c(c1)C(=O)OC21c2ccc(O)cc2Oc2cc(O)ccc21)[C@@H](C)CC)[C@@H](C)CC)[C@@H](C)CC)C(C)C)C(=O)N[C@@H](CC(=O)O)C(=O)N[C@@H](CCCNC(=N)N)C(=O)N[C@@H](CO)C(=O)N[C@H](C(=O)N[C@@H](Cc1c[nH]c2ccccc12)C(N)=O)[C@@H](C)CC [FITC-BID BH3] ({FITC-βAla}-EDIIRNIARHLAQVGDS[Nle]DRSIW-NH2)
[2]
  intracellular distribution of fluorescence: no cellular labeling
[3]
  FITC labeling of cells at 4° C. and 37° C.: did not label the cells at either temperature
  FITC labeling with or without sodium azide and 2-deoxyglucose: no labeling for either condition

## CCCC[C@H](NC(=O)[C@]1(C)CCCC=CCCC[C@](C)(NC(=O)[C@H](C)NC(=O)[C@H](CC(C)C)NC(=O)[C@H](Cc2c[nH]cn2)NC(=O)[C@H](CCCNC(=N)N)NC(=O)[C@H](C)NC(=O)[C@@H](NC(=O)[C@H](CC(N)=O)NC(=O)[C@H](CCCNC(=N)N)NC(=O)[C@@H](NC(=O)[C@@H](NC(=O)[C@H](CC(=O)O)NC(=O)[C@H](CCC(=O)O)NC(C)=O)[C@@H](C)CC)[C@@H](C)CC)[C@@H](C)CC)C(=O)N[C@@H](C(C)C)C(=O)NCC(=O)N[C@@H](CC(=O)O)C(=O)N1)C(=O)N[C@@H](CC(=O)O)C(=O)N[C@@H](CCCNC(=N)N)C(=O)N[C@@H](CO)C(=O)N[C@H](C(=O)N[C@@H](Cc1c[nH]c2ccccc12)C(N)=O)[C@@H](C)CC [SAHB3BIDA]
trypsin
  enhancement in trypsin resistance compared to the unmodified peptide: 3.5 fold
SEMK2
  IC50: 1600 nM
BAX
  BAX binding, in words: measurable binding
[4]
  apoptosis induction, in words: specific apoptosis induction
GST-BCL-2
  increase in displacement potency compared to unmodified BID BH3 peptide: more than 13 fold
GST-BCL-2; competition with FITC-labeled unmodified BID BH3
  GST-BCL2 binding, in words: highest affinity binding
GST-BCL-2; read-out: IC50 for displacement of prebound FITC-BID BH3 from BCL-2
  IC50: 62 nM
SEMK2-M1 leukemia cells; 10 mg/kg intravenously on days 1, 2, 3, 5, 6, measured days 4 and 7
  tumor burden (total body luminescence): leukemic suppression
SEMK2-M1 leukemia cells; 10 mg/kg or 5 mg/kg intravenously on days 1, 2, 3, 6, 7, measured days 4 and 8
  tumor burden (total body luminescence): dose-dependent manner
[5]; 10 uM
  pro-apoptotic effect in BCL-2 overexpressing cells: abolished
[5]; dose response (FIG. 24)
  overcoming BCL-2 protection by dose escalation: can be overcome by dose escalation
[1]; 22 hours post-injection
  percent of the input still measurable in serum: 13%
[6]
  BAK-independent cytochrome c release, in words: BAK-independent cytochrome c release is observed
Jurkat
  IC50: 2200 nM
BCL-2
  enhancement in BCL-2 binding affinity compared to unmodified BID BH3 peptide: 6 fold
BCL-2; fluorescinated compounds 25 nM, GST-BCL2 25 nM-1000 nM (FIG. 11d)
  Kd: 38.8 nM
RS4;11
  IC50: 2700 nM
MV4;11
  IC50: 4700 nM
REH
  IC50: 10200 nM
[7]; 100 nM, 40 minutes
  cytochrome c release at ten-fold lower dosing, in words: retain selective BAK-dependent cytochrome c release activity
[7]; 10 minutes
  cytochrome c release at 10 minutes, in words: significant cytochrome c release
[7]; 40 minutes
  EC50: 310 nM
BCL-XL
  BCL-XL binding site, in words: binds to the defined hydrophobic pocket of BCL-XL

B1: myristolated BID protein: maximally activated myristolated BID protein (protein, UniProt P55957 1-195, looked up)
BH3-interacting domain death …: MDCEVNNGSSLRDECITNLLVFGFLQSCSDNSFRRELDALGHELPVLAPQWEGYDELQTDGNRSSHSRLGRIEADSESQEDIIRNIARHLAQVGDSMDRSIPPGLVNGLALQLRNTSRSEEDRNRDLATALEQLLQAYPRDMEKEKTMLVLALLLAKKVASHTPSLLRDVFHTTVNFINQNLRTYVRSLARNGMD
modifications: myristoylated
[7]; 30 nM
  cytochrome c released: approximately 65%
